Reference: US8466104B2, “Therapeutically active alpha MSH analogues” (AbbVie Inc., priority 2005, dated 2013)
Entries after “also recorded” stand apart in the source; their conditions may differ.

Assays:
[1] = test system: ischemia-induced acute renal failure in rats; test: Inhibition of renal failure induced by 40 minutes bilateral occlusion of the renal arteries in rats (experimental setup 6); assay type: in vivo, rat; conditions: for diuresis (urine flow rate): 5 day after bilateral renal ischemia (RIR), 200 μg/kg iv; for effect on post ischemic polyuria: bilateral renal ischemia
Procedure: Inhibition of Renal Failure Induced by 40 Minutes Bilateral Occlusion of the Renal Arteries in Rats
Barrier-bred and specific pathogen-free female Wistar rats (250 g) are obtained from Charles River, Hannover, Germany. The animals are housed in a temperature (22-24° C.) and moisture (40-70%) controlled room with a 12-hour light-dark cycle (light on from 6:00 A.M. to 6:00 P.M.). All animals are given free access to tap water and a pelleted rat diet containing approximately 140 mmol/kg of sodium, 275 mmol/kg potassium and 23% protein (Altromin catalogue no. 1310, Altromin International, Lage, Germany).
The rats, which previously have been instrumented with a chronic venous catheter, are placed in metabolic cages and after a two days acclimation period to the metabolic cages, experimental ARF is induced by occlusion of both renal arteries for […]. During surgery, the rats are anesthetized with isoflurane-nitrous oxide and placed on a heated table to maintain rectal temperature at 37° C. Both kidneys are exposed through flank incisions, mobilized by being dissected free from the perirenal fat, then a small portion of the renal artery is gently dissected from the vein. The renal arteries are occluded with a smooth surfaced vascular clip (60 g pressure; World Precision Instruments, UK) for 40 min. Total ischemia is confirmed by observing blanching of the entire kidney surface. During the period of ischemia, the wounds are closed temporarily to maintain body temperature. After the clips are removed, the kidneys are observed for additional 2-5 min. to ensure color change, indicating blood reflow. Then the wound are closed with 3-0 silk ligatures. The rats returned to the metabolic cages, and daily 24 h urine output and water intake are measured for five days. As a control group, rats are subjected to sham operations identical to the ones used for ARF rats without occlusion of the renal arteries. Sham-operated rats are monitored in parallel with rats with ARF.
The rats are subjected to one of the following i.v treatments: • Vehicle: 0.5 ml 150 mM NaCl. • a-MSH: 200 μg a-melanocyte stimulating hormone/kg b.w. in 0.5 ml 150 mM NaCl. Test compound: 200 μg test compound/kg b.w. in 0.5 ml 150 mM NaCl. Treatment is given 5 minutes prior to reperfusion of the kidney and subsequently 6 and 24 hours later. Statistics
(§1) Data are presented as mean±S.E. Within group comparisons are analysed with Student's paired t test. Between group comparisons are performed by one way analysis of variance followed by Fishers Least Significant Difference test. Differences are considered significant at the 0.05 level.

[2] = test system: cisplatin induced renal failure in rats; test: Inhibition of cisplatin induced renal failure (experimental setup 7); assay type: in vivo, rat; conditions: for effect on cisplatin induced fall in GFR / effect on cisplatin induced hypomagnesemia: rats treated with cisplatin; for Plasma Mg: rats treated with cisplatin 5.0 mg/kg ip, 200 μg/kg iv test compound
Procedure: Inhibition of Cisplatin Induced Renal Failure
Rats, which previously have been instrumented with a chronic venous catheter, are placed in metabolic cages and after a period of acclimation to the metabolic cages the rats are treated with an intreperitoneal cisplatin injection 5.0 mg/kg bw in 0.5 ml 150 mM NaCl or vehicle (0.5 ml 150 mM NaCl). Five days later the rats are then returned to metabolic cages, and daily 24 h urine output and water intake are measured and collected for the next five days. All rats are then anesthetized in halothan/N2O and an arterial blood sample collected in prechilled EDTA coated vials. The blood samples are collected in a prechilled test tube with 0.5 mM EDTA, pH 7.4, and 20×10^6 IU/ml aprotinin. After centrifugation at 4° C., plasma samples are transferred to pre-chilled test tubes and stored at −20° C. for later measurements of creatinine and Magnesium (Mg). In addition to this creatinine is also measured in the urine collected in the last 24 hours period prior to the blood collection. […] Measurement of creatinine in urine and plasma is performed by use of the clinical chemistry systems VITROS 950 (Ortho-Clinical Diagnostics Inc., Johnson & Johnson, NJ) and Roche Hitachi Modular (Roche Diagnostics, Mannheim, Germany).
The rats are subjected to one of the following i.v treatments: • Vehicle: 0.5 ml 150 mM NaCl • a-MSH: 200 μg o-melanocyte stimulating hormone/kg b.w. in 0.5 ml 150 mM NaCl. • Test compound: 200 μg test compound/kg b.w. in 0.5 ml 150 mM NaCl. Treatment is given 5 minutes prior to reperfusion of the kidney and subsequently 6 and 24 hours later. Statistics
as §1

[3] = test system: LPS induced cytokine release and pulmonary hypertension in pigs; test: Inhibition of LPS induced cytokine release and pulmonary hypertension in pigs in vivo (experimental setup 4); set-up: species or system pig; conditions: 200 μg/kg single iv bolus
Procedure: Inhibition of LPS Induced Cytokine Release and Pulmonary Hypertension in Pigs in vivo.
Female Landrace pigs (˜30 kg) are fasted overnight but allowed free access to water. Then the pigs are premedicated with intramuscular ketamine (10 mg/kg) and midazolam (0.25 mg/kg). Anesthesia is induced with intravenous ketamine (5 mg/kg). The pigs are orally intubated, and anesthesia is maintained with a continuous intravenous infusion of fentanyl (60 μg/kg/h and midazolam (6 mg/kg/h). The animals are ventilated with a volume-controlled ventilator (Servo 900 ventilator; Siemens Elema, Solna, Sweden) with a positive end-expiratory pressure of 5 cm H2O. Tidal volume is kept at 10-15 ml/kg, and the respiratory rate adjusted (20-25 breaths/min) to maintain normocapnia (arterial carbon dioxide tension [PaCO2] in the range of 34-45 mmHg). Ventilation is performed with oxygen in air aimed tot reach an arterial oxygen tension (PaO2) higher than 105 mmHg. One arterial and 2 venous sheaths are placed in the carotid artery and corresponding veins for infusion, blood pressure measurements through fluid filled catheter, blood sampling and for introducing catheters.
Localization of the balloon-tipped catheter is determined by observing the characteristic pressure trace on the monitor as it is advance through the right side of the heart into the pulmonary artery as well as by x-ray. […]

## Ac-Lys-Lys-Lys-Lys-Lys-Lys-Ser-Tyr-Ser-Met-Glu-His-Phe-Arg-Trp-Gly-Lys-Pro-Val-NH2 (Ac-KKKKKKSYSMEHFRWGKPV-NH2) [a-MSH analogue #1]
[1]
  diuresis (urine flow rate): 18.8±3.6 ml/24 hours
  effect on post ischemic polyuria: complete normalization of urine flow rate
[1]; listed as SEQ ID NO: 1
  effect on post ischemic polyuria: completely normalized the diuresis
[2]
  effect on cisplatin induced fall in GFR: prevents the cisplatin induced fall in GFR
  effect on cisplatin induced hypomagnesemia: prevents cisplatin induced hypomagnesemia
  Plasma Mg: 0.84 ± 0.04 mM
[3]
  plasma concentrations of TNFa after LPS infusion: marked reduction in plasma concentrations of TNFa
[3]; LPS infusion
  maximal increase in pulmonary artery pressure (PAP): 8±2 mmHg

## Ac-Lys-Lys-Lys-Lys-Lys-Lys-Ser-Tyr-Ser-Nle-Glu-His-(D-Phe)-Arg-Trp-Gly-Lys-Pro-Val-NH2 (KKKKKKSYSXEHFRWGKPV; N-acetyl, Nle, D-Phe, C-amide) [a-MSH analogue #2]
[1]
  effect on post ischemic polyuria: markedly reduces the degree of polyuria
[2]
  effect on cisplatin induced fall in GFR: prevents cisplatin induced hypomagnesemia as well as the cisplatin induced fall in GFR
  effect on cisplatin induced hypomagnesemia: prevents cisplatin induced hypomagnesemia

## Ser-Tyr-Ser-Met-Glu-His-Phe-Arg-Trp-Gly-Lys-Pro-Val [a-MSH, reference compound]
[1]
  diuresis (urine flow rate): 29.0±2.9 ml/24 hours
  effect on post ischemic polyuria: unable to reduce the polyuria; also recorded: unable to normalize the urine production
[2]
  Plasma Mg: 0.37 ± 0.04 mM
